According to US20260250325A1, “Antiviral Polypeptide Membrane Fusion Inhibitor, and Preparation Method and Application Thereof” (priority 2025, published 2026):
Where a SMILES comes first, the peptide text is derived from it. The star is where a group is joined. Succinyl(4-O-cholesteryl) = CC(C)CCC[C@@H](C)[C@H]1CC[C@H]2[C@@H]3CC=C4C[C@@H](OC(=O)CCC(=O)*)CC[C@]4(C)[C@H]3CC[C@]12C

Test system: hPIV3 C243 virus strain
Format: cell-based, hPIV
Details: LLC-MK2 cells, hPIV3 C243, plaque reduction; read-out: EC50 against hPIV3 virus
Protocol: Rhesus monkey kidney cells (LLC-MK2) were sourced from the ATCC, with a catalog number CCL-7.1. The cells were cultured in a DMEM culture solution in which 10% fetal bovine serum, 1% non-essential amino acids, 1% sodium pyruvate, 1% L-glutamine, 100 U/ml penicillin, and 100 μg/ml streptomycin were added.
An HPIV-3 plaque experiment culture medium consisted of a DMEM culture solution added with 2% fetal bovine serum, 1% non-essential amino acids, 1% sodium pyruvate, 1% L-glutamine, 100 U/ml penicillin, and 100 μg/ml streptomycin.
The hPIV Type 3 (hPIV3 C243) was sourced from the ATCC, with a catalog number VR-93.
This study used the plaque reduction experiment to detect the in-vitro activity of the test sample against the hPIV3 C243 virus strain, and Human Anti-HPIV3 Monoclonal Antibody, clone PIA174 was an experimental system control. The test sample and a system experimental antibody were tested at 8 concentrations in duplicated wells.
The LLC-MK2 cells were digested with trypsin and then diluted to a concentration of 400,000 cells per milliliter by using a cell culture solution containing 2% serum. The diluted cells were added to a 96-well cell test board, with 100 μL per well, corresponding to 40,000 cells per well. The cells were cultured overnight in a 37° C. incubator with 5% CO2.
On the next day, the sample diluted at a fold ratio and an equal volume of virus (approximately 200 PFU per well) were well mixed and incubated at 37° C. in 5% CO2 for 1 hour. Then, the culture solution in the 96-well cell test board was discarded, the sample virus mixed solution (100 μL) was added to the 96-well cell culture plate, and incubated at 37° C. in 5% CO2 for 2 hours. After 2 h, the sample virus mixed solution was discarded, 200 μL of an experiment culture medium containing the test sample with a corresponding concentration was added, and the culture solution contained 0.8% CMC. A final concentration of DMSO in the culture solution was 0.5%. A control antibody was directly added to the experiment culture solution containing 0.8% CMC. A cell control (cells, without compound treatment or viral infection) and a viral control (cell infection virus, without compound treatment) were set. The cells were cultured for 1 day in the 37° C. incubator with 5% CO2.
The cells were fixed with 4% paraformaldehyde, and then permeabilization was performed with 0.5% Triton X-100. After the plate was washed with DPBS, a hPIV specific antibody (1:2000 dilution) was added and incubated at 37° C. for 1.5 h. Then, a secondary antibody (1:500 dilution) was added and incubated at 37° C. for 1 hour. The secondary antibody was discarded, a TrueBlue solution was added, dyeing was performed for approximately 10 minutes; and the plate was washed with running water and then air-dried, and the number of spots in each well was counted by using a microplate imaging counter.
Raw data was used for calculating the antiviral activity of the samples, and a calculation formula was shown as follows.
% inhibition rate=100−(sample value-cell control average value)/(virus control average value-cell control average value)×100
Non-linear fitting analysis was performed on the inhibition rate of the sample by using GraphPad Prism (version 10), so as to calculate an EC50 value for the sample. A fitting formula was log (inhibitor) vs. response-Variable slope (four parameters).

Row | Structure (SMILES) | EC50 [nM]
1 | CC[C@H](C)[C@H](NC(=O)[C@H](CCCCN)NC(=O)[C@H](CCCCN)NC(=O)[C@H](CC(C)C)NC(=O)[C@H](CO)NC(=O)[C@H](CCC(=O)O)NC(=O)[C@H](CCC(=O)O)NC(=O)[C@@H](NC(=O)[C@H](CCCCN)NC(=O)[C@H](CCCCN)NC(=O)[C@H](CC(N)=O)NC(=O)[C@@H](NC(=O)[C@H](CCC(=O)O)NC(=O)[C@H](CCC(=O)O)NC(=O)[C@@H](NC(=O)[C@H](CCCCN)NC(=O)[C@H](CCCCN)NC(=O)[C@H](CC(=O)O)NC(=O)[C@H](Cc1ccccc1)NC(=O)[C@H](CCC(=O)O)NC(=O)[C@H](CC(=O)O)NC(=O)[C@H](Cc1c[nH]c2ccccc12)NC(C)=O)[C@@H](C)CC)C(C)C)[C@@H](C)CC)C(=O)N[C@@H](CCC(=O)O)C(=O)N[C@@H](CCC(=O)O)C(=O)N[C@@H](CO)C(=O)N[C@@H](CC(=O)O)C(=O)N[C@@H](CCCCN)C(=O)N[C@@H](CCCCN)C(=O)N[C@@H](CC(C)C)C(=O)N[C@@H](CCC(=O)O)C(=O)N[C@@H](CCC(=O)O)C(=O)N[C@H](C(=O)N[C@@H](CC(N)=O)C(=O)N[C@@H](CCC(=O)O)C(=O)N[C@@H](C)C(=O)N[C@@H](C)C(=O)N[C@@H](C)C(=O)N[C@@H](CCCCN)C(=O)N[C@@H](CCCCNC(=O)CCC(=O)O[C@H]1CC[C@@]2(C)C(=CC[C@H]3[C@@H]4CC[C@H]([C@H](C)CCCC(C)C)[C@@]4(C)CC[C@@H]32)C1)C(N)=O)C(C)C [Compound 41] (Ac-WDEFDKKIEEVNKKIEESLKKIEESDKKLEEVNEAAAKK(Succinyl(4-O-cholesteryl))-NH2) | 71.1
2 | CC[C@H](C)[C@H](NC(=O)[C@H](CO)NC(=O)[C@H](C)NC(=O)[C@H](CC(=O)O)NC(=O)[C@H](Cc1ccccc1)NC(C)=O)C(=O)N[C@@H](CCC(=O)O)C(=O)N[C@@H](CCC(=O)O)C(=O)N[C@H](C(=O)N[C@@H](CC(N)=O)C(=O)N[C@@H](CCCNC(=N)N)C(=O)N[C@@H](CCCNC(=N)N)C(=O)N[C@H](C(=O)N[C@@H](CCC(=O)O)C(=O)N[C@@H](CCC(=O)O)C(=O)N[C@@H](CO)C(=O)N[C@@H](CC(C)C)C(=O)N[C@@H](CCCNC(=N)N)C(=O)N[C@@H](CCCNC(=N)N)C(=O)N[C@H](C(=O)N[C@@H](CCC(=O)O)C(=O)N[C@@H](CCC(=O)O)C(=O)N[C@@H](CO)C(=O)N[C@@H](CC(=O)O)C(=O)N[C@@H](CCCNC(=N)N)C(=O)N[C@@H](CCCNC(=N)N)C(=O)N[C@@H](CC(C)C)C(=O)N[C@@H](CCC(=O)O)C(=O)N[C@@H](CCC(=O)O)C(=O)N[C@H](C(=O)N[C@@H](CC(N)=O)C(=O)N[C@@H](C)C(=O)N[C@@H](CCC(=O)O)C(=O)N[C@@H](C)C(=O)N[C@@H](C)C(=O)N[C@@H](C)C(=O)N[C@@H](CCCCN)C(=O)N[C@@H](CCCCNC(=O)CCC(=O)O[C@H]1CC[C@@]2(C)C(=CC[C@H]3[C@@H]4CC[C@H]([C@H](C)CCCC(C)C)[C@@]4(C)CC[C@@H]32)C1)C(N)=O)C(C)C)[C@@H](C)CC)[C@@H](C)CC)C(C)C [Compound 42] (Ac-FDASIEEVNRRIEESLRRIEESDRRLEEVNAEAAAKK(Succinyl(4-O-cholesteryl))-NH2) | 18.9
3 | CC[C@H](C)[C@H](NC(=O)[C@H](CO)NC(=O)[C@H](C)NC(=O)[C@H](CC(=O)O)NC(=O)[C@H](Cc1ccccc1)NC(=O)[C@H](CCC(=O)O)NC(=O)[C@H](CC(=O)O)NC(=O)[C@H](Cc1c[nH]c2ccccc12)NC(C)=O)C(=O)N[C@@H](CCC(=O)O)C(=O)N[C@@H](CCC(=O)O)C(=O)N[C@H](C(=O)N[C@@H](CC(N)=O)C(=O)N[C@@H](CCCNC(=N)N)C(=O)N[C@@H](CCCNC(=N)N)C(=O)N[C@H](C(=O)N[C@@H](CCC(=O)O)C(=O)N[C@@H](CCC(=O)O)C(=O)N[C@@H](CO)C(=O)N[C@@H](CC(C)C)C(=O)N[C@@H](CCCNC(=N)N)C(=O)N[C@@H](CCCNC(=N)N)C(=O)N[C@H](C(=O)N[C@@H](CCC(=O)O)C(=O)N[C@@H](CCC(=O)O)C(=O)N[C@@H](CO)C(=O)N[C@@H](CC(=O)O)C(=O)N[C@@H](CCCNC(=N)N)C(=O)N[C@@H](CCCNC(=N)N)C(=O)N[C@@H](CC(C)C)C(=O)N[C@@H](CCC(=O)O)C(=O)N[C@@H](CCC(=O)O)C(=O)N[C@H](C(=O)N[C@@H](CCC(=O)O)C(=O)N[C@@H](C)C(=O)N[C@@H](C)C(=O)N[C@@H](C)C(=O)N[C@@H](CCCCN)C(=O)N[C@@H](CCCCNC(=O)CCC(=O)O[C@H]1CC[C@@]2(C)C(=CC[C@H]3[C@@H]4CC[C@H]([C@H](C)CCCC(C)C)[C@@]4(C)CC[C@@H]32)C1)C(N)=O)C(C)C)[C@@H](C)CC)[C@@H](C)CC)C(C)C [Compound 43] (Ac-WDEFDASIEEVNRRIEESLRRIEESDRRLEEVEAAAKK(Succinyl(4-O-cholesteryl))-NH2) | 16.1
4 | CC[C@H](C)[C@H](NC(=O)[C@H](CCCCN)NC(=O)[C@H](CCCCN)NC(=O)[C@H](CC(C)C)NC(=O)[C@H](CO)NC(=O)[C@H](CCC(=O)O)NC(=O)[C@H](CCC(=O)O)NC(=O)[C@@H](NC(=O)[C@H](CCCCN)NC(=O)[C@H](CCCCN)NC(=O)[C@H](CC(N)=O)NC(=O)[C@@H](NC(=O)[C@H](CCC(=O)O)NC(=O)[C@H](CCC(=O)O)NC(=O)[C@@H](NC(=O)[C@H](CCCCN)NC(=O)[C@H](CCCCN)NC(=O)[C@H](CC(=O)O)NC(=O)[C@H](Cc1ccccc1)NC(=O)[C@H](CCC(=O)O)NC(=O)[C@H](CC(=O)O)NC(=O)[C@H](Cc1c[nH]c2ccccc12)NC(C)=O)[C@@H](C)CC)C(C)C)[C@@H](C)CC)C(=O)N[C@@H](CCC(=O)O)C(=O)N[C@@H](CCC(=O)O)C(=O)N[C@@H](CO)C(=O)N[C@@H](CC(=O)O)C(=O)N[C@@H](CCCCN)C(=O)N[C@@H](CCCCN)C(=O)N[C@@H](CC(C)C)C(=O)N[C@@H](Cc1c[nH]cn1)C(=O)N[C@@H](CC(N)=O)C(=O)N[C@H](C(=O)N[C@@H](CCC(=O)O)C(=O)N[C@@H](C)C(=O)N[C@@H](C)C(=O)N[C@@H](C)C(=O)N[C@@H](CCCCN)C(=O)N[C@@H](CCCCNC(=O)CCC(=O)O[C@H]1CC[C@@]2(C)C(=CC[C@H]3[C@@H]4CC[C@H]([C@H](C)CCCC(C)C)[C@@]4(C)CC[C@@H]32)C1)C(N)=O)C(C)C [Compound 44] (Ac-WDEFDKKIEEVNKKIEESLKKIEESDKKLHNVEAAAKK(Succinyl(4-O-cholesteryl))-NH2) | 27.9
5 | CC[C@H](C)[C@H](NC(=O)[C@H](CO)NC(=O)[C@H](C)NC(=O)[C@H](CC(=O)O)NC(=O)[C@H](Cc1ccccc1)NC(=O)[C@H](CCC(=O)O)NC(=O)[C@H](CC(=O)O)NC(=O)[C@H](Cc1c[nH]c2ccccc12)NC(C)=O)C(=O)N[C@@H](CO)C(=O)N[C@@H](CCC(N)=O)C(=O)N[C@H](C(=O)N[C@@H](CC(N)=O)C(=O)N[C@@H](CCC(=O)O)C(=O)N[C@@H](CCCCN)C(=O)N[C@H](C(=O)N[C@@H](CC(N)=O)C(=O)N[C@@H](CCC(N)=O)C(=O)N[C@@H](CO)C(=O)N[C@@H](CC(C)C)C(=O)N[C@@H](CCC(=O)O)C(=O)N[C@@H](CCC(=O)O)C(=O)N[C@H](C(=O)N[C@@H](CCCNC(=N)N)C(=O)N[C@@H](CCCCN)C(=O)N[C@@H](CO)C(=O)N[C@@H](CC(=O)O)C(=O)N[C@@H](CCC(=O)O)C(=O)N[C@@H](CC(C)C)C(=O)N[C@@H](CC(C)C)C(=O)N[C@@H](Cc1c[nH]cn1)C(=O)N[C@@H](CC(N)=O)C(=O)N[C@@H](CCC(=O)O)C(=O)N[C@@H](C)C(=O)N[C@@H](C)C(=O)N[C@@H](C)C(=O)N[C@@H](CCCCN)C(=O)N[C@@H](CCCCNC(=O)CCC(=O)O[C@H]1CC[C@@]2(C)C(=CC[C@H]3[C@@H]4CC[C@H]([C@H](C)CCCC(C)C)[C@@]4(C)CC[C@@H]32)C1)C(N)=O)[C@@H](C)CC)[C@@H](C)CC)C(C)C [Compound 45] (Ac-WDEFDASISQVNEKINQSLEEIRKSDELLHNEAAAKK(Succinyl(4-O-cholesteryl))-NH2) | 36.3
